Earlier results, collected in US10399920B2, “Crystalline form of cannabidiol” (S&B Pharma, Inc., priority 2016, dated 2019).

Tested on: epilepsy
Conditions: animal studies; dosed at 50 and 100 mg/kg intra-peritoneally; Cannabidiol prepared by non-synthetic methods

SMILES: C=C(C)[C@@H]1CCC(C)=C[C@H]1c1c(O)cc(CCCCC)cc1O [Cannabidiol]
- reducing mortality: effective in reducing mortality
